{"source": "patent US20050244481A1", "about": "“Personal care products and methods for inhibiting the adherence of flora to skin” (Kimberly-Clark Worldwide, Inc., priority 2004, published 2005)", "format_in_all_cases": "cell-based", "key": {"[1]": {"tested_on": "Pseudomonas aeruginosa", "test": "Inhibition of P. aeruginosa attachment to VITRO-SKIN synthetic skin substrate (Example 2, AlamarBlue)", "conditions": "for % Attached as Compared to PBS Treatment: 3 h, RFU at 60 min, n = 3", "experimental": "(§1) Two days prior to the test a bacterial culture was started by inoculating 10 ml of Luria-Bertani (LB) medium with one frozen bead containing Pseudomonas aeruginosa (Dr. G. O'Toole, Dept. Microbiol. Dartmouth Medical School, Hanover, N.H.), and incubating the culture overnight at 37° C. with agitation at 125 rpm.\n(§2) One day prior to the test a 100 ml LB culture was inoculated with 100 μl of the overnight culture and grown overnight at 37° C. with agitation at 125 rpm.\n(§3) The day of the test the optical density (OD) of the overnight culture was measured at 650 nm using a Spectramax spectrophotometer (Molecular Devices, Sunnyvale, Calif.). The culture was centrifuged at 4,500×g for 10 minutes at 4° C. to pellet the bacteria. The bacteria were resuspended in phosphate buffered saline (PBS) to give a concentration of 2×10^10 cells/ml (1 OD equals 1×10^9 cells/ml). […]\n(§4) The tissues were treated with 50 μl of inulin, Tween 20 alone, or PBS alone followed immediately by 50 μl of either the bacteria cells or PBS. […] AlamarBlue™ conversion was monitored kinetically in a microfluorometer (Fluoroskan Ascent, Thermo-Labsystems, Beverly, Mass.) for 60 minutes at 37° C., with an excitation of 544 nm and emission of 590 nm.\n(§5) Results are expressed as percent bacteria adhered to the tissue relative to the PBS control. The percentage is based on the number of cells that adhered to the skin in the inulin-containing (or Tween 20-containing control) samples as compared to the number of cells that adhered to the skin in the PBS control (i.e. PBS plus bacteria cells), as determined by the AlamarBlue® levels (RFU) at 60 minutes. The percent adherence was calculated by the formula: (RFU of the sample−RFU of appropriate background control)/(average of the RFU of the PBS treatment−average RFU of PBS background control)*100.\n(§6) The results for the three wells comprising each dilution were averaged, and the percent attached as compared to the PBS control treatment was calculated."}, "[2]": {"tested_on": "Pseudomonas aeruginosa", "test": "Inhibition of P. aeruginosa attachment to porcine skin (Example 2, AlamarBlue)", "conditions": "for % Attached as Compared to PBS Treatment: 3 h, RFU at 60 min, n = 3", "experimental": "as §1, §2, §3, §4, §5, §6"}, "[3]": {"tested_on": "Pseudomonas aeruginosa", "test": "Inhibition of P. aeruginosa attachment to EpiDerm skin culture (Example 3)", "conditions": "for % Attached as Compared to PBS Treatment: 37° C., 3 h, n = 2", "experimental": "The EpiDerm™ (MatTek, Ashland, Mass.) experiment was performed as outlined by the protocol supplied by the manufacturer for the EPI-200 EpiDerm™.\nTwo days prior to the test bacterial culture was started by inoculating 10 ml of Luria-Bertani broth (LB) with one to two well isolated colonies of Pseudomonas aeruginosa (Dr. G. O'Toole, Dept. Microbiol. Dartmouth Medical School, Hanover, N.H.) and incubating the culture overnight at 37° C. with agitation at 125 rpm.\nOne day prior to the test a 50 ml LB culture was inoculated with 50 μl of the overnight culture and grown overnight at 37° C. with agitation at 125 rpm. The optical density (at 650 nm) of the overnight culture was measured using a Spectramax spectrophotometer (molecular Devices, Sunnyvale, Calif.). The culture was centrifuged at 4,500×g for 10 minutes at 4° C. to pellet the bacteria. The bacteria were resuspended in phosphate buffered saline (PBS) to give a concentration of 2×10^10 cells/ml (1 OD equals 1×10^9 cells/ml).\nA 20% (w/v) stock of inulin (Jerusalem Artichoke, Sigma Chemical St Louis Mo.) was prepared by mixing 0.20 g of inulin with a sufficient amount of PBS to yield a final volume of 1 ml. […]\nFor the applied dose, 50 μl of 20% inulin in PBS, 4% Tween 20 alone, or PBS alone was applied to the EpiDerm™ tissue followed immediately by 50 μl of either the bacteria cells or PBS. […] After three hours, the tissue was analyzed for the number of adhered bacteria.\nTo measure adherence of P. aeruginosa to the EPIDERM™ tissue, the liquid remaining on the tissue was first transferred to a fresh microcentrifuge tube. […] Fluorescence was monitored in a microfluorometer at an excitation of 485 nm and an emission of 510 nm.\nResults are expressed as percent bacteria adhered to the tissue relative to the PBS control. […] The percent adherence was calculated by the formula: (RFU in bound fraction of the inulin or Tween 20 sample−average background RFU)/(average of the RFU in the bound fraction of the cells alone treatment−average background RFU)*100. […]"}, "[4]": {"tested_on": "Pseudomonas aeruginosa (ATCC # 27853)", "test": "Inhibition of P. aeruginosa attachment to VITRO-SKIN synthetic skin substrate (Example 1, AlamarBlue)", "conditions": "3 h, RFU at 120 min, n = 5", "experimental": "Two days prior to the test a bacterial culture was started by inoculating 10 ml Luria-Bertani (LB) (Sigma-Aldrich, St. Louis, Mo.) with one frozen bead of Pseudomonas aeruginosa (ATCC # 27853), and incubating the culture overnight at 37° C. with agitation at 125 rpm.\nOne day prior to the test a 100 ml LB culture was inoculated with 100 μl of the overnight culture and grown overnight at 37° C. with agitation at 125 rpm. VITRO-SKIN® synthetic skin substrate (N19, IMS, Milford, Conn.) was cut with a #2 size boring tool and placed into the wells of a 96 well tissue culture plate (Costar #3596, Corning Inc., Corning, NY). The plates were kept in a humidity chamber overnight until use to prevent dehydration of the tissues.\nThe day of the test, the optical density at 650 nm (OD) of the overnight culture was measured using a Spectramax spectrophotometer (Molecular Devices, Sunnyvale, Calif.). The culture was centrifuged at 4,500×g for 10 minutes at 4° C. (J-251 centrifuge, Beckman, Fullerton, Calif.) to pellet the bacteria. The bacteria were resuspended in phosphate buffered saline (PBS) to give a concentration of 2×10^10 cells/ml (1 OD equals 1×10^9 cells/ml).\nA 20% (w/v) solution of each inulin source (Chicory root, Dahlia tuber from Sigma-Aldrich, St. Louis, Mo.) was prepared by mixing 0.3 g inulin with PBS (Invitrogen, Carlsbad, Calif.) to a final volume of 1.5 ml. Tween 20 (Sigma-Aldrich, St. Louis, Mo.) was included as a positive control, and a 4% (v/v) stock was prepared by mixing 40 μl of Tween 20 to 960 μl PBS. The Tween 20 stock was diluted to prepare a 2% (v/v) solution of Tween 20 by mixing 800 μl of the 4% solution and 800 μl of PBS. A two fold dilution series was prepared for each inulin source as follows: • 10%: 800 μl of the 20% solution plus 800 μl of PBS • 5%: 800 μl of the 10% solution plus 800 μl of PBS • 2.5%: 800 μl of the 5% solution plus 800 μl of PBS • 1.25% 800 μl of the 2.5% solution plus 800 μl of PBS.\nAll tests were run five times (n=5).\nFor the applied dose, 50 μl of each inulin dilution, Tween 20 alone, or PBS alone was added to the VITRO-SKIN® discs followed immediately by 50 μl of either the bacteria cells or PBS. Samples containing 50 μl inulin dilutions and 50 μl PBS served as a background controls for the inulin samples. Samples containing 50 μl Tween 20 and 50 μl PBS served as background controls for the Tween 20 samples. Background controls for the PBS were 100 μl PBS. The plates were gently shaken at room temperature for three hours. The tissues were washed three times with 250 μl of PBS, and transferred to an opaque white 96 well plate (Costar # 3922). 200 μl of AlamarBlue™ (Trek Diagnostic Systems, Cleveland, Ohio) in LB (20 μl AlamarBlue™+180 μl LB per well) was added to each well. AlamarBlue™ conversion was monitored every 15 minutes in a microfluorometer (Fluoroskan Ascent, Thermo-Labsystems, Beverly, Mass.) for 120 minutes with an excitation of 544 nm and emission of 590 nm. In between readings the plates were covered and incubated at 37° C.\nas §5, with “(relative fluorescence units (RFU))” for “(RFU)”, “120” for “60”\nThe results for the five wells for each dilution step were averaged, and the percent attached as compared to the PBS control treatment was calculated."}}, "data": [{"substance": "inulin [Jerusalem Artichoke]", "values": [{"measurement": "effect on attachment of P. aeruginosa to VITRO-SKIN substrate (in words)", "setting": "[1]", "result": "inhibited attachment"}, {"measurement": "% Attached as Compared to PBS Treatment", "setting": "[1]; treatment concentration 10%", "result": 53, "unit": "%"}, {"measurement": "effect on attachment of P. aeruginosa to porcine skin (in words)", "setting": "[2]", "result": "also occurred on porcine skin"}, {"measurement": "% Attached as Compared to PBS Treatment", "setting": "[2]; treatment concentration 10%", "result": 25, "unit": "%"}, {"measurement": "effect on attachment of P. aeruginosa to EpiDerm (in words)", "setting": "[3]", "result": "inhibited attachment"}, {"measurement": "% Attached as Compared to PBS Treatment", "setting": "[3]; treatment concentration 10%", "result": 57, "unit": "%"}]}, {"substance": "inulin [Dahlia tuber]", "values": [{"measurement": "% Attached as Compared to PBS Treatment", "setting": "[4]; treatment concentration 1.25%", "result": 86, "unit": "%"}, {"measurement": "% Attached as Compared to PBS Treatment", "setting": "[4]; treatment concentration 2.5%", "result": 59, "unit": "%"}, {"measurement": "% Attached as Compared to PBS Treatment", "setting": "[4]; treatment concentration 5%", "result": 48, "unit": "%"}, {"measurement": "% Attached as Compared to PBS Treatment", "setting": "[4]; treatment concentration 10%", "result": 29, "unit": "%"}]}, {"substance": "inulin [Chicory root]", "values": [{"measurement": "% Attached as Compared to PBS Treatment", "setting": "[4]; treatment concentration 1.25%", "result": 92, "unit": "%"}, {"measurement": "% Attached as Compared to PBS Treatment", "setting": "[4]; treatment concentration 2.5%", "result": 60, "unit": "%"}, {"measurement": "% Attached as Compared to PBS Treatment", "setting": "[4]; treatment concentration 5%", "result": 45, "unit": "%"}, {"measurement": "% Attached as Compared to PBS Treatment", "setting": "[4]; treatment concentration 10%", "result": 17, "unit": "%"}]}, {"substance": "Tween 20 [reference compound]", "values": [{"measurement": "% Attached as Compared to PBS Treatment", "setting": "[4]; treatment concentration 2%", "result": 50, "unit": "%"}, {"measurement": "% Attached as Compared to PBS Treatment", "setting": "[1]; treatment concentration 2%", "result": 10, "unit": "%"}, {"measurement": "% Attached as Compared to PBS Treatment", "setting": "[2]; treatment concentration 2%", "result": 70, "unit": "%"}, {"measurement": "% Attached as Compared to PBS Treatment", "setting": "[3]; treatment concentration 2%", "result": 73, "unit": "%"}]}]}
